The first test relates to HT-1080 cells. As to the kind of experiment: HT-1080 cell viability assay (ferroptosis induced by RSL3, Cell Titer-Glo). It counts as cell-based. The note with it: Homo sapiens, HT-1080, 20 h, ferroptosis inducer RSL3, 20 hours, ferroptosis inhibitory activity, Table 2. An outline of the steps:
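EC50 fitted by sigmoidal dose-response regression on luminescent viability data normalized to untreated cells. Compounds ran as a 10-point, 3-fold series from 1.1 μM alongside RSL3 for 20 hours, after overnight seeding.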
For orientation: EC50 means the concentration giving half of the maximal effect. Lower therefore signals higher potency in that assay. On to `CC(C)(C)c1ccc(NC2CCC(C(N)=O)CC2)cc1` (stereo not shown) [Compound 192, 4-((4-(tert-butyl)phenyl)amino)cyclohexane-1-carboxamide], for which the EC50 lay in the range of 0.1 to 1 µM.

For the compound `CNC1CCC(Nc2ccc(C(C)(C)C)cc2)C1` (stereo not shown) [Compound 194, N1-(4-(tert-butyl)phenyl)-N3-methylcyclopentane-1,3-diamine], the EC50 lay in the range of 0.1 to 1 µM.

For the compound `CN(C)CC1CCC(Nc2ccc(C(C)(C)C)cc2)CC1` (stereo not shown) [Compound 196, 4-(tert-butyl)-N-(4-((dimethylamino)methyl)cyclohexyl)aniline], the half-maximal effective concentration (EC50) is 0.0001 to 0.1 µM.

`CC(C)(C)c1ccc(N[C@H]2CC[C@H](N)CC2)cc1` [Compound 197, (1r,4r)-N1-(4-(tert-butyl)phenyl)cyclohexane-1,4-diamine] displayed an EC50 of 0.0001 to 0.1 µM.

Regarding `CC(C)(C)c1ccc(N[C@H]2CC[C@@H](N)CC2)cc1` [Compound 198, (1s,4s)-N1-(4-(tert-butyl)phenyl)cyclohexane-1,4-diamine], the EC50 lay within 0.1 to 1 µM.

The compound `NC1CCC(Nc2ccncc2)CC1` (stereo not shown) [Compound 199, N1-(pyridin-4-yl)cyclohexane-1,4-diamine] displayed an EC50 of 1 to 10 µM.

Compound `CC(C)(C)c1ccc(NC2CCC(N)CC2)cc1Cl` (stereo not shown) [Compound 201, N1-(4-(tert-butyl)-3-chlorophenyl)cyclohexane-1,4-diamine] registered a half-maximal effective concentration (EC50) of 0.1 to 1 µM.

Turning to `CC(C)(C)c1ccc(NCCN2CCCC2)cc1` [Compound 202, 2-(pyrrolidin-1-yl) acetaldehyde--4-(tert-butyl)-N-(2-(pyrrolidin-1-yl)ethyl)aniline-4-(tert-butyl)aniline], the concentration for a half-maximal effect (EC50) fell in the range of 1 to 10 µM.

Consider `CC1(C)CCC(c2ccc(NC(C)(C)CN3CCCC3)cc2)CC1` [Compound 203, 4-(4,4-dimethylcyclohexyl)-N-(2-methyl-1-(pyrrolidin-1-yl)propan-2-yl)aniline], for which the EC50 lay in the range of 0.1 to 1 µM.

For the compound `CC(C)(C)c1ccc(NC2CCc3nc(N)sc3C2)cc1` (stereo not shown) [Compound 204, 4-N-(4-(tert-butyl)phenyl)-4,5,6,7-tetrahydrobenzo[d]thiazole-2,6-diamine], the EC50 was in the range of 0.1 to 1 µM.

Turning to `CC(C)(C)c1ccc(NCCN2CCOCC2)cc1` [Compound 206, U4-(tert-butyl)-N-(2-morpholinoethyl)aniline], the EC50 was in the range of 1 to 10 µM.

Compound `CC(C)(C)Nc1ccc(C2CCNCC2)cc1` [Compound 207, N-(tert-butyl)-4-(piperidin-4-yl)aniline] displayed an EC50 of 1 to 10 µM.

Turning to `CCc1ccc(NC2CCC(N)CC2)cn1` (stereo not shown) [Compound 208, N1-(6-ethylpyridin-3-yl)cyclohexane-1,4-diamine], the concentration giving a half-maximal response (EC50) was in the range of 1 to 10 µM.

In turn, `CC1(C)CCC(c2ccc(NCCCN)cc2)CC1` [Compound 209, 1-N-(4-(4,4-dimethylcyclohexyl)phenyl)propane-1,3-diamine] registered an EC50 of 0.0001 to 0.1 µM.

Turning to `Cc1cc(C)c(NC2CCC(CN)CC2)c(C)c1` (stereo not shown) [Compound 210, N-[4-(aminomethyl)cyclohexyl]-2,4,6-trimethylaniline], the 50% effective concentration (EC50) lay in the range of 1 to 10 µM.

`COCCN(C)CCNc1ccc(C(C)(C)C)cc1` [Compound 211, N1-(4-(tert-butyl)phenyl)-N2-(2-methoxyethyl)-N2-methylethane-1,2-diamine] had an EC50 of 1 to 10 µM.

For `CC(C)(C)c1ccc(NC2CCC(N)(C(N)=O)CC2)cc1` (stereo not shown) [Compound 212, 1-amino-4-((4-(tert-butyl)phenyl)amino)cyclohexane-1-carboxamide], the EC50 was in the range of 1 to 10 µM.

The compound `C[C@@H](O)[C@H](N)C(=O)NC1CCC(Nc2ccc(C(C)(C)C)cc2)CC1` (stereo partly drawn) [Compound 214, (2S, 3R)-2-amino-N-(4-((4-(tert-butyl)phenyl)amino)cyclohexyl)-3-hydroxybutanamide] came in with a concentration for a half-maximal effect (EC50) of 0.0001 to 0.1 µM.

With `CC(C)(C)c1ccc(NC2CCC(NC(=O)C3CNCCN3)CC2)cc1` (stereo not shown) [Compound 215, N-(4-((4-(tert-butyl)phenyl)amino)cyclohexyl) piperazine-2-carboxamide], the concentration for a half-maximal effect (EC50) was 0.0001 to 0.1 µM.

`Cc1cc(NC2CCC(N)CC2)ccc1C(C)(C)C` (stereo not shown) [Compound 217, N1-(4-(tert-butyl)-3-methylphenyl)cyclohexane-1,4-diamine] showed an EC50 of 0.0001 to 0.1 µM.

In turn, `CC(C)(C)c1ccc(NC2CCC(N)CC2)cc1C#N` (stereo not shown) [Compound 218, 5-((4-aminocyclohexyl)amino)-2-(tert-butyl)benzonitrile] returned a half-maximal effective concentration (EC50) of 0.1 to 1 µM.

`Cc1cc(C)c(NC2CCC(N)CC2)c(C)c1` (stereo not shown) [Compound 219, N1-mesitylcyclohexane-1,4-diamine] had a half-maximal effective concentration (EC50) of 1 to 10 µM.

Consider `CC(C)(C)c1ccc(-c2ccc(NC3CCC(N)CC3)cc2)cc1` (stereo not shown) [Compound 220, N1-(4′-(tert-butyl)-[1,l′-biphenyl]-4-yl)cyclohexane-1,4-diamine], for which the concentration for a half-maximal effect (EC50) was in the range of 0.0001 to 0.1 µM.

As to `NC1CCC(Nc2ccc3ccccc3c2)CC1` (stereo not shown) [Compound 221, N1-(naphthalen-2-yl)cyclohexane-1,4-diamine], the concentration giving a half-maximal response (EC50) lay within 0.0001 to 0.1 µM.

`NC1CCC(Nc2ccc(CC(F)(F)F)cc2)CC1` (stereo not shown) [Compound 223, N1-(4-(2,2,2-trifluoroethyl)phenyl)cyclohexane-1,4-diamine] had a half-maximal effective concentration (EC50) of 1 to 10 µM.

As to `CC(C)(C)c1ccc(NCCOCCN)cc1` [Compound 224, N-(2-(2-aminoethoxy)ethyl)-4-(tert-butyl)aniline], the half-maximal effective concentration (EC50) was in the range of 0.1 to 1 µM.

As for `CC1(C)CCC(c2ccc(NCCCCN)cc2)CC1` [Compound 225, N1-(4-(4,4-dimethylcyclohexyl)phenyl) butane-1,4-diamine], the half-maximal effective concentration (EC50) was in the range of 0.0001 to 0.1 µM.

On to `CC(C)(CN1CCCC1)Nc1ccc(C(C)(C)C)cc1` [Compound 227, 4-(tert-butyl)-N-(2-methyl-1-(pyrrolidin-1-yl)propan-2-yl)aniline], for which the half-maximal effective concentration (EC50) fell in the range of 1 to 10 µM.

Compound `CC(C)(CN)Nc1ccc(C(C)(C)C)cc1` [Compound 229] showed a concentration giving a half-maximal response (EC50) of 1 to 10 µM.

`CC(C)(C)c1ccc(NC2CCC(NCCO)CC2)cc1` (stereo not shown) [Compound 230, 2-((4-((4-(tert-butyl)phenyl)amino)cyclohexyl)amino)ethan-1-ol] displayed a half-maximal effective concentration (EC50) of 0.0001 to 0.1 µM.

For `CC1CC(Nc2ccc(C(C)(C)C)cc2)CCC1O` (stereo not shown) [Compound 233A], the EC50 fell in the range of 0.1 to 1 µM.

As for `CC(C)(C)c1ccc(NC(CCO)CCO)cc1` [Compound 234, 3-((4-(tert-butyl)phenyl)amino) pentane-1,5-diol], the half-maximal effective concentration (EC50) fell in the range of 1 to 10 µM.

`NCC1CCC(Nc2ccc3c(c2)CCC3)CC1` (stereo not shown) [Compound 235, N-(4-(aminomethyl)cyclohexyl)-2,3-dihydro-1H-inden-5-amine] showed an EC50 of 0.0001 to 0.1 µM.

In turn, `NC1CCC(Nc2ccc3c(c2)CCCC3)CC1` (stereo not shown) [Compound 236, N1-(5,6,7,8-tetrahydronaphthalen-2-yl)cyclohexane-1,4-diamine] gave an EC50 of 0.0001 to 0.1 µM.

`CNCC1CC(Nc2ccc(C(C)(C)C)cc2)C1` (stereo not shown) [Compound 237, 4-(tert-butyl)-N-(3-((methylamino)methyl)cyclobutyl)aniline]: the EC50 fell in the range of 1 to 10 µM.

`NC1CCC(Nc2cccc3ccccc23)CC1` (stereo not shown) [Compound 238, N1-(naphthalen-1-yl)cyclohexane-1,4-diamine] registered a 50% effective concentration (EC50) of 0.0001 to 0.1 µM.

On to `NC1CCC(Nc2ccc(Oc3ccccc3)cc2)CC1` (stereo not shown) [Compound 239, N1-(4-phenoxyphenyl)cyclohexane-1,4-diamine], for which the EC50 is 0.0001 to 0.1 µM.

`Cc1ccc(NC2CCC(N)CC2)cc1C` (stereo not shown) [Compound 240, N1-(3,4-dimethylphenyl)cyclohexane-1,4-diamine] had a 50% effective concentration (EC50) of 0.1 to 1 µM.

`CC(C)(C)c1ccc(NC2CCC(CN)C2)cc1` (stereo not shown) [Compound 241, N-(3-(aminomethyl)cyclopentyl)-4-(tert-butyl)aniline] registered an EC50 of 0.0001 to 0.1 µM.

Take `CC(C)(C)c1ccc(NC2CCC(N)CC2)cc1F` (stereo not shown) [Compound 242A, N1-(4-(tert-butyl)-3-fluorophenyl)cyclohexane-1,4-diamine 2,2,2-trifluoroacetate]: the EC50 lay in the range of 0.0001 to 0.1 µM.

In turn, `CC1(C)CCC(c2ccc(NC3CCC(CCNC(N)=O)CC3)cc2)CC1` (stereo not shown) [Compound 243] gave a concentration giving a half-maximal response (EC50) of 0.0001 to 0.1 µM.

For `CC1(C)CCC(c2ccc(NC3CCC(CCNC(=O)[C@H]4CC(=O)NC(=O)N4)CC3)cc2)CC1` (stereo partly drawn) [Compound 244A, (R)—N-(2-(4-((4-(4,4-dimethylcyclohexyl)phenyl)amino)cyclohexyl)ethyl)-2,6-dioxohexahydro pyrimidine-4-carboxamide], the EC50 lay in the range of 0.0001 to 0.1 µM.

Regarding `CN1CCN(CC(=O)N2CCC(Nc3ccc(C(C)(C)C)cc3)CC2)C(=O)C1` [Compound 245, 1-(2-(4-((4-(tert-butyl)phenyl)amino)piperidin-1-yl)-2-oxoethyl)-4-methylpiperazin-2-one], the EC50 is 1 to 10 µM.

For `CC1(C)CCN(CCNc2ccc(C(C)(C)C)cc2)CC1` [Compound 246, 4-(tert-butyl)-N-(2-(4,4-dimethylpiperidin-1-yl)ethyl)aniline], the EC50 lay in the range of 0.1 to 1 µM.

`CN(C)CCCN1CCC(Nc2ccc(C3CCC(C)(C)CC3)cc2)CC1=O` (stereo not shown) [Compound 247, 1-(3-(dimethylamino)propyl)-4-((4-(4,4-dimethylcyclohexyl)phenyl)amino)piperidin-2-one] showed a concentration for a half-maximal effect (EC50) of 0.0001 to 0.1 µM.

Turning to `CC1(C)CCC(c2ccc(NC3CCC(NC(N)=O)CC3)cc2)CC1` (stereo not shown) [Compound 248, 1-(4-((4-(4,4-dimethylcyclohexyl)phenyl)amino)cyclohexyl)urea], the EC50 was 0.1 to 1 µM.

Compound `CC1(C)CCC(c2ccc(NC3CCC(NS(N)(=O)=O)CC3)cc2)CC1` (stereo not shown) [Compound 249, N-(4-{[4-(4,4-dimethylcyclohexyl)phenyl]amino}cyclohexyl)aminosulfonamide] displayed an EC50 of 0.0001 to 0.1 µM.

Still in this test, the particulars now being: Homo sapiens, ferroptosis inducer RSL3, 20 hours, ferroptosis inhibitory activity, Table 2.
Compound `CN1CCN(CC(=O)N2CCC(Nc3ccc(C(C)(C)C)cc3)CC2)CC1=O` [Compound 222, 4-(2-{4-[(4-tert-butylphenyl)amino]piperidin-1-yl}-2-oxoethyl)-1-methylpiperazin-2-one] showed a 50% effective concentration (EC50) of 1 to 10 µM.

The compound `CC1(C)CCC(c2ccc(NC3CCC(C(C)(C)N)CC3)cc2)CC1` (stereo not shown) [Compound 226, N-(4-(2-aminopropan-2-yl)cyclohexyl)-4-(4,4-dimethylcyclohexyl)aniline] gave an EC50 of 0.0001 to 0.1 µM.

Values taken from patent publication US20240360114A1 (SIRONAX LTD., priority 2021, published 2024).
